Experimental data reported in US12616203B2, “Use of 3-isoxazolidinones compounds as selective herbicides” (FMC Corporation, priority 2014, dated 2026).

Columns and labels:
weeds; Wheat and canola = experiment: Ex29 PRE greenhouse; assay type: in vivo; details: 28 DAT
Source text: The tested weeds include Italian ryegrass (Lolium perenne. multiflorum, LOLMU), wild mustard (Sinapis arvensis, SINAR), annual bluegrass (Poa annua, POAAN), wild oat (Avena fatua, AVEFA), blackgrass (Alopecurus myosuroides, ALOMY), common lambsquarters (Chenopodium album, CHEAL), littleseed canarygrass (Phalaris minor, PHAMI), common chickweed (Stellaria media, STEME), corn poppy (Papaver rhoeas, PAPRH), redroot pigweed (Amaranthus retroflexus, AMARE), silky windgrass (Apera spica-venti, APSEV), wild buckwheat (Polygonum convolvulus, POLCO). The crops teased were Wheat and canola.
Treatments were applied before the emergence of Italian ryegrass, wild oat, wild buckwheat, blackgrass, littleseed canarygrass, common chickweed, common lambsquarters, corn poppy, silky windgrass, redroot pigweed, wild mustard, annual bluegrass, canola, and wheat. […] Flats were watered and fertilized routinely after treatment application.

weeds [1] = experiment: Ex18 PRE greenhouse; assay type: in vivo; details: weed and rate in the words
Source text: (§1) Additional treatments included application of metazachlor (Butisan®, 43.1%) at 750 g ai/ha, napropamide (Devrinol DF®, 50%) at 1260 g ai/ha, and dimethachlor (Teridox®, 48%) at 1000 g ai/ha. […] Treatments were applied just after the seeding of annual bluegrass, cheat, wild oat, quackgrass, field violet, blackgrass, littleseed canarygrass, silky windgrass, yellow foxtail, and goosegrass. […] Flats were watered and fertilized routinely after treatment application. Each treatment was replicated three times.

weeds [2] = experiment: Ex10 PRE greenhouse; assay type: in vivo; details: 28 DAT, weed and rate in the words
Source text: Treatments 1-12 of 2,4-DC and aclonifen tank-mix combinations follow same rates listed above. […] Sulfentrazone (Spartan 4F® 39.6%) at 280 g ai/ha, pendimethalin (Prowl 3.3®EC, 37.4%) at 784 g ai/ha, or S-metolachlor (Dual II Magnum® 82.4%) at 1084 g ai/ha were applied as commercial standards. Treatments were replicated 3 times and flats were watered after planting but before the treatment and lightly watered after treatment application. Thereafter flats were watered and fertilized routinely. […] Shepherd's-purse was rated at 21 and 28 DAT only, due to delayed emergence.

weeds [3] = experiment: Ex13 PRE greenhouse; assay type: in vivo; details: 28 DAT, weed and rate in the words
Source text: (§2) Pyroxasulfone (KIH-485, 85%) at 74.3 g ai/ha, pendimethalin (Prowl 3.3EC, 37.4%) at 1200 g ai/ha, or a premix of chlorsulfuron plus metsulfuron-methyl (Report Extra, 75%) at 15.8 g ai/ha were applied as commercial standards. […] Treatments were replicated 3 times and flats were watered after planting before the treatment and lightly watered after treatment application. Thereafter flats were watered and fertilized routinely.

[4] = tested on: weeds; Wheat, barley, and oil seed rape (OSR); experiment: Ex19 PRE greenhouse; assay type: in vivo; details: rate in the words
Source text: In this study, the crops tested included Wheat, barley, and oil seed rape (OSR).
To determine weed efficacy and wheat, barley or OSR selectivity, 2,4 DC (CS 36.7%) and Diflufenican (CS 19.5%) were applied preemergence either alone or as tank-mix partners at the following rates. 2,4 DC was applied at 125, 170, 210 and 250 g ai/ha while Diflufenican was applied at 50, 75, and 100 g ai/ha. Pyroxasulfone (KIH-485, 85%) at 74.3 g ai/ha, pendimethalin (Prowl 3.3EC, 37.4%) at 1200 g ai/ha, or a premix of chlorsulfuron plus metsulfuron-methyl (Report Extra, 75%) at 15.8 g ai/ha were applied as commercial standards.
Herbicides included as standards for comparison were pyroxasulfone, pendimethalin, and a pre mix of chlorsulfuron plus metsulfuron methyl, all applied at labeled rates as indicated above. Treatments were replicated 3 times. […] Thereafter flats were watered and fertilized routinely.

Common cocklebur = experiment: Ex37 PRE 2,4-DC + atrazine, % control 28 DAT, Colby; assay type: in vivo, Xanthium strumarium
Source text: (§3) S-metolachlor (DUAL II MAGNUM®, 82.4%) at 525 g ai/h plus atrazine at 560 g ai/h was included as a standard for comparison. […] Thereafter flats were watered and fertilized routinely.

Velvetleaf = experiment: as above; assay type: in vivo, Abutilon theophrasti; details: PRE
Source text: as §3

Wild buckwheat = experiment: Ex11 PRE 2,4-DC + clomazone, % control 28 DAT, Colby; assay type: in vivo, Polygonum convolvulus
Source text: The crop tested was Oilseed rape.
Additional treatments included applications of metazachlor (Butisan®, 43.1%) at 750 g ai/ha, napropamide (Devrinol DF®, 50%) at 1260 g, and dimethachlor (Teridox®, 48%) at 1000 g. […] Treatments were applied just after the planting of tall morningglory, wild mustard, common lambsquarters, Italian ryegrass, wild buckwheat, redroot pigweed, common chickweed, corn poppy, and oilseed rape.
Flats were watered and fertilized routinely after treatment application. Each treatment was replicated three times.

Cheat = experiment: Ex18 PRE 2,4-DC + clomazone, % control 28 DAT, Colby; assay type: in vivo, Bromus secalinus
Source text: as §1

[5] = tested on: weeds; Sugarcane (var. CTC 20); experiment: Ex17 PRE greenhouse; assay type: in vivo; details: weed and rate in the words
Method: (§4) In this example a study was conducted to determine weed efficacy and sugarcane injury when 2,4 DC or isoxaflutole are applied either alone or tank-mix as preemergence against the weeds: Ivyleaf morningglory (Ipomoea hederacea, IPOHE), hairy beggartickss (Bidens pilosa, BIDPI), yellow nutsedge (Cyperus esculentus, CYPES), large crabgrass (Digitaria sanguinalis, DIGSA), and redroot pigweed (Amaranthus retroflexus, AMARE). The crop tested in this study was Sugarcane (var. CTC 20).
(§5) To determine weed efficacy and sugarcane selectivity, 2,4 DC (SC 36%) and isoxaflutole (Balance Flexx®, 20%) were applied PRE either alone or as tank-mix partners at rates mentioned below. 2,4 DC was applied at 500, 750, and 1000 g ai/ha while isoxaflutole was applied at 80, 100, and 120 g ai/ha. […] Treatments were applied PRE to sugarcane (var. CTC 20), ivyleaf morningglory, hairy beggarticks, yellow nutsedge, large crabgrass, and redroot pigweed. Weed species were planted in fiber flats (6″×10″) containing Pennington soil. Soil was watered before application and watered lightly after application. Flats were watered and fertilized routinely after treatment application.

Common lambsquarters = experiment: Ex13 PRE 2,4-DC + diflufenican, % control 28 DAT, Colby; assay type: in vivo, Chenopodium album
Source text: as §2

Wild mustard = experiment: as above; assay type: in vivo, Sinapis arvensis
Source text: as §2

Blackgrass = experiment: as above; assay type: in vivo, Alopecurus myosuroides
Source text: as §2

common chickweed = experiment: Ex14 POST 2,4-DC + bromoxynil, % control 28 DAT, Colby; assay type: in vivo, Stellaria media
Source text: (§6) The study further assessed post crop safety on Wheat and Barley.
(§7) Nonionic surfactant at 0.5% (v/v) was included with commercial standards application. No adjuvant was applied with any other treatments. All plant species were direct seeded into 3″ plastic pots using metro-mix as growth media. At treatment application common lambsquarters was 1.75″, common chickweed was 2″, wild mustard was 2.25″, wild oat was 5.5″, wild buckwheat was 2-5″, Italian ryegrass was 2-3″, wheat was 5.5″, and barley was 4.5″ in height. Plants were watered well before application and not watered 24 h after application. Plants were watered and fertilized routinely after treatment application. Each treatment was replicated four times.

weeds; Wheat and Barley = experiment: Ex14 POST greenhouse; assay type: in vivo; details: 28 DAT, rate in the words
Source text: as §6, §7

weeds; Sugarcane (CTC20) = experiment: Ex23 PRE greenhouse; details: 28 DAT, 85 g ai/ha
Method: (Ipomoea spp). The tested crop in this study was Sugarcane (CTC20).
Sugarcane was direct seeded into 6″ plastic pots using 3-4″ sugarcane setts, oriented bud up, with bud leaf shield removed. 2,4 DC and sulfentrazone were applied alone or combined as tank-mix at each rate mentioned below. […] Treatments were replicated 3 times. […] Thereafter flats were watered and fertilized routinely. […] Visual percent sugarcane injury was recorded at 21 and 28 DAT, using a scale of 0 (no injury, observed as bleaching, stunting or necrosis) to 100 (complete plant death).

Ivyleaf morningglory = experiment: Ex17 PRE 2,4 DC + isoxaflutole, % control 28 DAT, Colby; assay type: in vivo, Ipomoea hederacea
Method: as §4
as §5, with “Weed species were planted in fiber flats (6″×10″) containing Pennington soil.” left out

With COCCN(C(=O)CCl)c1c(C)cccc1C [Dimethachlor, dimethachlor] the injury to canola (weeds; Wheat and canola; at 100 g) was 18%, the “weed control / crop safety in words” value (weeds; Wheat and canola; weed, crop, rate in the words) was “alone provided control of lambsquarters at 1000 g ai/ha” and the “weed control in words” value (weeds [1]) was “controlled annual bluegrass, quackgrass, littleseed canarygrass, silky windgrass, yellow foxtail, and goosegrass”.
CCC(CC)Nc1c([N+](=O)[O-])cc(C)c(C)c1[N+](=O)[O-] [Pendimethalin, pendimethalin] was tested, and the “weed control in words” value (weeds [2]) was “at 784 g gave control of 5 out of 10 weeds”, the “weed control in words” value (weeds [3]) was “at 1200 g gave control of 6 out of 10 weeds” and the “weed control / crop safety in words” value [4] was “controlled corn poppy and field violet and was safe on barley”.
CCNc1nc(Cl)nc(NC(C)C)n1 [Atrazine] was tested, and the Y (Common cocklebur; Atrazine alone 140 g ai/ha) was 57%, the Y (Common cocklebur; Atrazine alone 280 g ai/ha) was 92% and the Y (Common cocklebur; Atrazine alone 560 g ai/ha) was 97%. For the same compound, the “Y (% control, atrazine alone)” value (Velvetleaf; atrazine 140 g ai/ha) was 53%, the “Y (% control, atrazine alone)” value (Velvetleaf; atrazine 280 g ai/ha) was 63% and the “Y (% control, atrazine alone)” value (Velvetleaf; atrazine 560 g ai/ha) was 96%.
CC1(C)CON(Cc2ccccc2Cl)C1=O [Clomazone, clomazone, reference compound] showed a Y (Wild buckwheat; clomazone alone 60 g ai/ha) of 70%, a Y (Wild buckwheat; clomazone alone 90 g ai/ha) of 80% and a Y (Wild buckwheat; clomazone alone 120 g ai/ha) of 79%. It also gave a Y (Cheat; clomazone alone 60 g ai/ha) of 40%, a Y (Cheat; clomazone alone 90 g ai/ha) of 75% and a Y (Cheat; clomazone alone 120 g ai/ha) of 97%. The “weed control in words” value (weeds [1]) was “controlled goosegrass at all rates and cheat at 120 g” and the “weed control in words” value [5] was “at 1120 g controlled hairy beggarticks, large crabgrass, and redroot pigweed”.
O=C(Nc1ccc(F)cc1F)c1cccnc1Oc1cccc(C(F)(F)F)c1 [Diflufenican, diflufenican, reference compound] was tested, and the “weed control in words” value (weeds [3]) was “controlled common lambsquarters at 100 g only”, the Y (Common lambsquarters; diflufenican alone 50 g ai/ha) was 65% and the Y (Common lambsquarters; diflufenican alone 75 g ai/ha) was 73%. For the same compound, the Y (Common lambsquarters; diflufenican alone 100 g ai/ha) was 85%, the Y (Wild mustard; diflufenican alone 50 g ai/ha) was 42% and the Y (Wild mustard; diflufenican alone 75 g ai/ha) was 89%. It also gave a Y (Wild mustard; diflufenican alone 100 g ai/ha) of 100%, a Y (Blackgrass; diflufenican alone 50 g ai/ha) of 33% and a Y (Blackgrass; diflufenican alone 75 g ai/ha) of 17%. It also gave a Y (Blackgrass; diflufenican alone 100 g ai/ha) of 27%.
For Nc1c([N+](=O)[O-])ccc(Oc2ccccc2)c1Cl [Aclonifen, aclonifen], the “weed control in words” value (weeds [2]) was “alone at all three rates controlled common lambsquarters, quackgrass, redroot pigweed, littleseed canarygrass, annual bluegrass, blackgrass, and shepherd's purse”.
In the case of N#Cc1cc(Br)c(O)c(Br)c1 [Bromoxynil, bromoxynil, reference compound], the Y (common chickweed; bromoxynil alone 140 g ai/ha) is reported as 35%, the Y (common chickweed; bromoxynil alone 210 g ai/ha) is reported as 65% and the Y (common chickweed; bromoxynil alone 280 g ai/ha) is reported as 38%. The “weed control / crop safety in words” value (weeds; Wheat and Barley) was “alone controlled wild buckwheat, wild mustard, and common lambsquarters at all rates and was safe on both crops at all rates”.
Compound CS(=O)(=O)c1cc(C(F)(F)F)ccc1C(=O)c1cnoc1C1CC1 [Isoxaflutole, isoxaflutole, reference compound] has a sugarcane injury (weeds; Sugarcane (CTC20)) of 12%, a Y (Ivyleaf morningglory; isoxaflutole alone 80 g ai/ha) of 69% and a Y (Ivyleaf morningglory; isoxaflutole alone 100 g ai/ha) of 73%. The Y (Ivyleaf morningglory; isoxaflutole alone 120 g ai/ha) was 81% and the “weed control in words” value [5] was “alone at 80 g or higher rates controlled hairy beggarticks, large crabgrass, and redroot pigweed”.
